IC50 data for 22 compounds are collected here from patent US6512000B1, “Aminocarbonyl-substituted benzimidazoles having tryptase-inhibitory activity” (Boehringer Ingelheim Pharma KG, priority 1999, dated 2003).

Where a name gives a salt, the structure may show the parent alone.

T1 sequence (P20231 31-275): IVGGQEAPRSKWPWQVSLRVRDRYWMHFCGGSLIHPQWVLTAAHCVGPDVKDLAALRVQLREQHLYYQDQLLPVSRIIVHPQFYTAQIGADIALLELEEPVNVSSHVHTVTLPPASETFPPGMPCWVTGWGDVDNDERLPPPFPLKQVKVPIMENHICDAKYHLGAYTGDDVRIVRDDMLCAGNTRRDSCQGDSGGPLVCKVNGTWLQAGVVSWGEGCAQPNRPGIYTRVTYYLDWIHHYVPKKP

The experiment addresses T1, rh beta tryptase (Homo sapiens, UniProt P20231).
T1 construct: purchased Promega
The experiment is described as follows: Tryptase inhibition test (cleavage of N-p-tosyl-Gly-Pro-Lys-para-nitroaniline, p-nitroaniline measured at 405 nm). It is filed as biochemical. The note with it: concentration at which 50% of the tryptase enzyme activity is inhibited; substrate 0.6 mM, pH 7.4, 37° C. How it is done: The compounds according to the invention are characterised by their tryptase-inhibiting activity. This ability to inhibit tryptase was investigated using the test described below.
The measurement is carried out in Tris HCl buffer (100 mM), which additionally contains calcium (5 mM) and heparin ([…]), at pH 7.4. The standard used is rh beta tryptase which may be obtained commercially from Promega, for example. The substrate used is N-p-tosyl-Gly-Pro-Lys-para-nitroaniline in a concentration of 0.6 mM. The substrate is digested with tryptase to form p-nitroaniline which can be measured at 405 nm. Usually, an incubation period of 5 minutes and an incubation temperature of 37° C. are chosen. The enzyme activity used is 0.91 U/ml. The measurements are carried out in an Autoanalyser (Cobas Bio) made by Hofmann LaRoche. The potential inhibitory substances are used in concentrations of 10 μM in the screening, the inhibition of the tryptase being given in percent. The IC50 is determined at over 70% inhibition (concentration at which 50% of the enzyme activity is inhibited). After 5 minutes' pre-incubation of the potential inhibitory substances, the substrate is added to start the reaction, the formation of p-nitroaniline being taken as a measurement of the enzyme activity after 5 minutes, after testing the linearity.
The data obtained after the above test has been carried out (% inhibition) are assembled in Table 25 for the compounds according to the invention. The IC50 values obtained for the compounds according to the invention can be found in Table 26.
Table 26 contains the IC50 binding values obtained for the compounds according to the invention. These were measured as described above.
In turn, `Cn1c(CCc2ccc(C(=N)N)cc2)nc2cc(C(=O)N(CCC(=N)N)c3cccc(Oc4ccccc4)c3)ccc21` [Example 23, 2-[2-(4-Amidinophenyl)-ethyl]-1-methyl-benzimidazol-5-yl-carboxylic Acid-N-(2-amidinoethyl)-N-(3-phenoxy-phenyl)-amide-dihydrochloride] came in with an IC50 of 49 nM.

For `Cn1c(CCc2ccc(C(=N)N)cc2)nc2cc(C(=O)N(CCC(=N)N)CCc3ccccc3)ccc21` [Example 24, 2-[2-(4-Amidinophenyl)-ethyl]-1-methyl-benzimidazol-5-yl-carboxylic Acid-N-(2-amidinoethyl)-N-(2-phenylethyl)-amide-dihydrochloride], the IC50 stood at 16 nM.

Consider `Cn1c(CCc2ccc(C(=N)N)cc2)nc2cc(C(=O)N(CCC(=N)N)C3CCCCCCC3)ccc21` [Example 25, 2-[2-(4-Amidinophenyl)-ethyl]-1-methyl-benzimidazol-5-yl-carboxylic Acid-N-(2-amidinoethyl)-N-cyclooctyl-amide-dihydrochloride], for which the IC50 came to 55 nM.

With `Cc1ccc(N(CCC(=N)N)C(=O)c2ccc3c(c2)nc(CCc2ccc(C(=N)N)cc2)n3C)cc1` [Example 26, 2-[2-(4-Amidinophenyl)-ethyl]-1-methyl-benzimidazol-5-yl-carboxylic Acid-N-(2-amidinoethyl)-N-(4-methyl-phenyl)-amide-dihydrochloride], the IC50 was determined as 168 nM.

`CC(C)N(CCC(=N)N)C(=O)c1ccc2c(c1)nc(CCc1ccc(C(=N)N)cc1)n2C` [Example 27, 2-[2-(4-Amidinophenyl)-ethyl]-1-methyl-benzimidazol-5-yl-carboxylic Acid-N-(2-amidinoethyl)-N-iso-propyl-amide-dihydrochloride] showed a concentration for half-maximal inhibition (IC50) of 153 nM.

In the case of `CCOC(=O)C(Cc1ccc(C(=N)N)cc1)N(C)C(=O)c1ccc2c(c1)nc(CCc1ccc(C(=N)N)cc1)n2C` (stereo not shown) [Example 29, Ethyl 2-{2-[2-(4-Amidinophenyl)-ethyl]-1-methyl-benzimidazol-5-yl-carbonyl-(methylamino)}-3-(4-amidinophenyl)-propionate-formate], it took 158 nM to reach half-maximal inhibition (IC50).

`Cn1c(CCc2ccc(C(=N)N)cc2)nc2cc(C(=O)N(CCNCc3ccccc3)C3CCCCC3)ccc21` [Example 36, 2-[2-(4-Amidinophenyl)-ethyl]-1-methyl-benzimidazol-5-yl-carboxylic Acid-[N-(2-(N′-benzylamino)-ethyl)-N-cyclohexyl-amide]-dihydrochloride] came in with a half-inhibitory concentration (IC50) of 67 nM.

Take `Cn1c(CCc2ccc(C(=N)N)cc2)nc2cc(C(=O)N(CCN)C3CCCCC3)ccc21` [Example 37, 2-[2-(4-Amidinophenyl)-ethyl]-1-methyl-benzimidazol-5-yl-carboxylic Acid-[N-(2-amino-ethyl)-N-cyclohexyl-amide]-dihydrochloride]: the IC50 was found to be 68 nM.

For the compound `Cn1c(CCc2ccc(C(=N)N)cc2)nc2cc(C(=O)NCCNc3ccccc3)ccc21` [Example 38, 2-[2-(4-Amidinophenyl)-ethyl]-1-methyl-benzimidazol-5-yl-carboxylic Acid-N-(2-phenylamino-ethyl)-amide-dihydrochloride], the IC50 amounted to 113 nM.

Turning to `Cn1c(CCc2ccc(CN)cc2)nc2cc(C(=O)NCCC(c3ccccc3)c3ccccc3)ccc21` [Example 40, 2-[2-(4-Aminomethyl-phenyl)-ethyl]-1-methyl-benzimidazol-5-yl-carboxylic Acid-N-(3,3-diphenylpropyl)-amide-dihydrochloride], the half-inhibitory concentration (IC50) was 192 nM.

On to `Cc1ccccc1N1CCCN(C(=O)c2ccc3c(c2)nc(CCc2ccc(CN)cc2)n3C)CC1` [Example 41, 2-[2-(4-Aminomethyl-phenyl)-ethyl]-1-methyl-benzimidazol-5-yl-carboxylic Acid-[N′-(2-methyl-phenyl)-diazepide]-hydrochloride], for which half-maximal inhibition (IC50) required 172 nM.

With `Cn1c(CCc2ccc(CN)cc2)nc2cc(C(=O)N(CCCc3ccccc3)Cc3ccc(CN)cc3)ccc21` [Example 42, 2-[2-(4-aminomethyl-phenyl)-ethyl]-1-methyl-benzimidazol-5-yl-carboxylic Acid-N-(4-aminomethyl-benzyl)-N-(3-phenylpropyl)-amide-dihydrochloride], the IC50 is 836 nM.

`Cn1c(CCc2ccc(CN)cc2)nc2cc(C(=O)N(CCC(c3ccccc3)c3ccccc3)Cc3ccc(CN)cc3)ccc21` [Example 43, 2-[2-(4-Aminomethyl-phenyl)-ethyl]-1-methyl-benzimidazol-5-yl-carboxylic Acid-N-(4-aminomethylbenzyl)-N-(3,3-diphenylpropyl)-amide-dihydrochloride] displayed an IC50 of 319 nM.

For the compound `Cc1cccc(N2CCN(C(=O)c3ccc4c(c3)nc(CCc3ccc(C(=N)N)cc3)n4C)CC2)c1` [Example 47, 2-[2-(4-Amidinophenyl)-ethyl]-1-methyl-benzimidazol-5-yl-carboxylic Acid-[N′-(3-methylphenyl)-piperazide]], the IC50 was found to be 118 nM.

As for `CCOc1cccc(N2CCN(C(=O)c3ccc4c(c3)nc(CCc3ccc(C(=N)N)cc3)n4C)CC2)c1` [Example 48, 2-[2-(4-Amidinophenyl)-ethyl]-1-methyl-benzimidazol-5-yl-carboxylic Acid-[N′-(3-ethoxyphenyl)-piperazide]], half-maximal inhibition (IC50) required 147 nM.

Regarding `CC(C)Oc1cccc(N2CCN(C(=O)c3ccc4c(c3)nc(CCc3ccc(C(=N)N)cc3)n4C)CC2)c1` [Example 49, 2-[2-(4-Amidinophenyl)-ethyl]-1-methyl-benzimidazol-5-yl-carboxylic Acid-[N ′-(3-isopropyloxyphenyl)-piperazide]], the IC50 was determined as 152 nM.

In turn, `Cn1c(CCc2ccc(C(=N)N)cc2)nc2cc(C(=O)N3CCN(C4CCCC4)CC3)ccc21` [Example 50, 2-[2-(4-Amidinophenyl)-ethyl]-1-methyl-benzimidazol-5-yl-carboxylic Acid-[N′-(cyclopentyl)-piperazide]] showed an IC50 of 176 nM.

With `Cc1ccccc1N1CCN(C(=O)c2ccc3c(c2)nc(CCc2ccc(C(=N)N)cc2)n3C)CC1` [Example 51, 2-[2-(4-Amidinophenyl)-ethyl]-1-methyl-benzimidazol-5-yl-carboxylic Acid-[N′-(2-methylphenyl)-piperazide]], inhibition was half-maximal at 231 nM (IC50).

In turn, `Cn1c(CCc2ccc(C(=N)N)cc2)nc2cc(C(=O)N3CCN(c4ccccn4)CC3)ccc21` [Example 52, 2-[2-(4-Amidinophenyl)-ethyl]-1-methyl-benzimidazol-5-yl-carboxylic Acid-[N′-(2-pyridyl)-piperazide]] came in with an IC50 of 231 nM.

`COc1ccccc1N1CCN(C(=O)c2ccc3c(c2)nc(CCc2ccc(C(=N)N)cc2)n3C)CC1` [Example 53, 2-[2-(4-Amidinophenyl)-ethyl]-1-methyl-benzimidazol-5-yl-carboxylic Acid-[N′-(2-methoxyphenyl)-piperazide]]: the IC50 stood at 241 nM.

Compound `CCOc1ccccc1N1CCN(C(=O)c2ccc3c(c2)nc(CCc2ccc(C(=N)N)cc2)n3C)CC1` [Example 54, 2-[2-(4-Amidinophenyl)-ethyl]-1-methyl-benzimidazol-5-yl-carboxylic Acid-[N′-(2-ethoxyphenyl)-piperazide]] returned an IC50 of 305 nM.

Compound `Cn1c(CCc2ccc(C(=N)N)cc2)nc2cc(C(=O)N3CCN(Cc4ccccc4)CC3)ccc21` [Example 55, 2-[2-(4-Amidinophenyl)-ethyl]-1-methyl-benzimidazol-5-yl-carboxylic Acid-[N′-benzyl-piperazide]] had an IC50 of 346 nM.

The IC50 is the point on the concentration scale where inhibition reaches its midpoint. A lower IC50 goes with greater potency.
